Measured values from article PMC4102551, “Screening and Characterisation of Antimicrobial Properties of Semisynthetic Betulin Derivatives” (PLoS ONE, 2014).
Values after ≈ are worked out from the molar mass of the structure shown. Values joined by “and” are separate entries in the source; they are usually repeats but may differ in a detail not shown here. Equal entries are not always repeated. Where two headings read alike, the source gives them in different places.

Assays:
E. aerogenes ATCC 13048 = assay: Broth microdilution assay, E. aerogenes; assay type: cell-based, Enterobacter aerogenes; settings: for inhibition at 50 µM: Klebsiella aerogenes, ATCC13048, 24 h, read-out: Inhibitory effect (%) E. aerogenes ATCC 13048
In short: (§1)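 Broth microdilution per CLSI/EUCAST in Mueller Hinton II broth, 5×10^5 cfu/mL, 24 h at 37°C with agitation; growth by absorbance at 620 nm versus controls. Compounds first screened at 50 µM.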

S. aureus ATCC 25923 = assay: Broth microdilution assay, S. aureus; assay type: cell-based, Staphylococcus aureus; settings: for inhibition at 50 µM: ATCC25923, 24 h
In short: as §1

P. aeruginosa ATCC 27853 = assay: Broth microdilution assay, P. aeruginosa; assay type: cell-based, Pseudomonas aeruginosa
In short: as §1

[1] = system: S. aureus and E. faecalis; design: method as in PMID 18835348; settings: ref 36; cited from earlier work
in vitro = assay type: cell-based, human; settings: human
In short: (§2)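 Cytotoxicity read-out: intracellular ATP (CellTiter-Glo luminescence) in Huh-7 hepatoma cells seeded at 20000 cells/well, cultured overnight, then exposed to compounds for 24 h at 37°C in 5% FBS medium. Polymyxin B sulphate (15000 IU/mL) served as positive control.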

Huh-7 cells = assay: in vitro; assay type: cell-based, human; settings: for Cytotoxicity (%) Huh-7 cells: 50 µM
In short: as §2

E. faecalis ATCC 29212 = assay: Broth microdilution assay, E. faecalis; assay type: cell-based, Enterococcus faecalis; settings: for Inhibitory effect (%) E. faecalis ATCC 29212 / inhibition at 50 µM: 50 µM, 24 h, inhibition of growth, mean ± SD; for inhibition at 50 µM: ATCC29212, 24 h, read-out: Inhibitory effect (%) E. faecalis ATCC 29212
In short: as §1

C. albicans ATCC 90028 = assay: Broth microdilution assay, C. albicans; assay type: cell-based, Candida albicans
In short: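 Candida albicans ATCC 90028 was grown on Sabouraud Dextrose Agar at 27°C for 16–18 h, then suspended in sterile 0.9% saline. Broth microdilution in clear 96-well plates mixed equal volumes of yeast suspension and diluted sample. Plates were incubated with agitation at 35°C for 48 h. Absorbance at 620 nm was read at 0, 24 and 48 h, and growth inhibition was expressed as a percentage relative to controls.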

E. coli ATCC 25922 = assay: Broth microdilution assay, E. coli; assay type: cell-based, Escherichia coli
In short: as §1

[2] = system: S. aureus, E. coli, B. subtilis and Micrococcus luteus; design: method as in PMID 12601674, PMID 7500642, PMID 8590637; settings: ref 19, 33, 34; cited from earlier work
[3] = system: S. aureus infected HL cell line; assay: Host-pathogen co-culture assay; assay type: cell-based, Staphylococcus aureus; settings: at the highest concentration (range 0.024–100 µM), 3 days
Protocol: Briefly, HL cells used as the host cell were seeded at 40000 cells/well on black-walled microplates (Perkin Elmer) and incubated at 37°C, 5% CO2 and 95% humidity for 24 h. Cell monolayers were infected with 2000 cfus of S. aureus in RPMI 1640 media without antibiotics. Compounds were added to the media at different concentrations selected on the basis of the MIC determinations. […] Co-cultures were incubated for 3 days at 37°C, 5% CO2 and 95% humidity. Following the incubation period the cells were washed with 200 µL 6.7 mM PBS, pH 7.4, and finally, 200 µL 6.7 mM PBS, pH 7.4 containing 10 µg/mL fluorescein diacetate (FDA) was added to the cells to evaluate the survival of the host cells. After 45 min incubation at room temperature (RT), fluorescence was measured at 485 nm excitation and 538 nm emission with a Victor plate reader.
For studying simultaneously the efficacy and tolerability of antibacterial compounds, an assay based on co-culturing of a secondary human cell line (HL, derived originally from human lung) and a pathogen was used. […] In the assay, host cells are incubated in the presence of the test sample and are infected with bacteria. After 3 days of incubation, the host cell survival is determined using fluorescein diacetate to measure the viability of the host cells. […]

S. aureus = assay: Effect of BSA on antimicrobial activity (S. aureus microdilution assay); assay type: cell-based, Staphylococcus aureus; settings: compound at MIC90 6.25 µM
Protocol: The effect of bovine serum albumin (BSA) on antimicrobial activity was assessed by using the S. aureus microdilution assay in a similar manner as described above, but with increasing concentrations of BSA, ranging from 0.023 nM to 25 µM [23].
As described above, the antimicrobial activities of betulin derivatives seen in the microdilution assay were not detectable in the host-pathogen co-culture assay. Since the assay was performed in cell culture media containing 7.5% of fetal bovine serum, this was suspected to be the reason. Serum is rich in proteins, the most abundant of these being albumin. First, we performed the normal antibacterial assay by replacing the Mueller Hinton II broth with the cell culture media. […] The activity of compound 5 was clearly affected by the added BSA: at 24 nM concentration the activity was reduced by 50% and at concentration 390 nM the activity was completely lost. As a comparison, the concentration of albumin in human serum is typically 36–48 g/L which corresponds to […] concentration. Albumin is capable of interacting with many organic and inorganic molecules and functions as a key controller of intercellular fluxes [43]–[52]. Majority of therapeutic compounds are reversibly bound to plasma proteins, but the degree and nature of the binding differs. […]

[4] = 50 µM, 24 h, inhibition of growth, mean ± SD
[5] = Staphylococcus aureus, 50 µM, 24 h, inhibition of growth, mean ± SD, read-out: Inhibitory effect (%) S. aureus ATCC 25923
[6] = Pseudomonas aeruginosa, ATCC27853, 24 h; read-out: Inhibitory effect (%) P. aeruginosa ATCC 27853
[7] = Candida albicans, ATCC90028, 48 h; read-out: Inhibitory effect (%) C. albicans ATCC 90028
[8] = Escherichia coli, ATCC25922, 24 h; read-out: Inhibitory effect (%) E. coli ATCC 25922

In the case of `C=C(C)[C@@H]1CC[C@]2(C(=O)O)CC[C@]3(C)[C@H](CC[C@@H]4[C@@]5(C)CC[C@H](O)C(C)(C)[C@@H]5CC[C@]43C)[C@@H]12` [Compound 19, betulinic acid], the “Inhibitory effect (%) E. aerogenes ATCC 13048” value (E. aerogenes ATCC 13048; [4]) is reported as 38.2±3.0%, the inhibition at 50 µM (E. aerogenes ATCC 13048; [4]) is reported as 38% and the inhibition at 50 µM (S. aureus ATCC 25923; [5]) is reported as 22.8 ± 5.4%. The inhibition at 50 µM (P. aeruginosa ATCC 27853; [6]) was 6.7 ± 1.4%, the “MIC against S. aureus and E. faecalis” value [1] was over 256 µg/mL and the cytotoxicity at 24 h, 50 µM (in vitro; Huh-7 cells, 50 µM, 24 h exposure, ATP content, 5% FBS, read-out: Cytotoxicity (%) Huh-7 cells) was 30%. For the same compound, the “Cytotoxicity (%) Huh-7 cells” value (Huh-7 cells; 24 h exposure, ATP content, 5% FBS) was 31.6±15.7%, the “Inhibitory effect (%) E. faecalis ATCC 29212” value (E. faecalis ATCC 29212) was 55.9±5.0% and the inhibition at 50 µM (E. faecalis ATCC 29212; Enterococcus faecalis) was 56%. For the same compound, the “Inhibitory effect (%) C. albicans ATCC 90028” value (C. albicans ATCC 90028; 50 µM, 48 h at 35°C, inhibition of growth, mean ± SD) was “inactive”, the inhibition at 50 µM (C. albicans ATCC 90028; [7]) was 21.6 ± 2.6% and the inhibition at 50 µM (E. coli ATCC 25922; [8]) was 20.2 ± 6.1%. For the same compound, the “Activity against S. aureus, E. coli, B. subtilis and Micrococcus luteus” value [2] was “inactive”.
With `C=C(C)[C@@H]1CC[C@]2(C(=O)O)CC[C@]3(C)C(CCC4[C@@]5(C)CCC(=O)C(C)(C)C5CC[C@]43C)C12` (some centres unmarked) [Compound 23, betulonic acid] the inhibition at 50 µM (E. aerogenes ATCC 13048; [4]) was 21.8 ± 4.1%, the “Inhibitory effect (%) S. aureus ATCC 25923” value (S. aureus ATCC 25923; [4]) was 51.1±7.3% and the inhibition at 50 µM (S. aureus ATCC 25923; [5]) was 51%. For the same compound, the inhibition at 50 µM (P. aeruginosa ATCC 27853; [6]) was 9.5 ± 2.5%, the cytotoxicity at 24 h, 50 µM (in vitro; Cytotoxicity (%) Huh-7 cells) was 18% and the “Cytotoxicity (%) Huh-7 cells” value (Huh-7 cells; human, 24 h) was 17.8±12.6%. The “Activity in host-pathogen co-culture assay” value [3] was 27%, the “Inhibitory effect (%) E. faecalis ATCC 29212” value (E. faecalis ATCC 29212) was 74% and 74.3±0.8% and the inhibition at 50 µM (E. faecalis ATCC 29212; Enterococcus faecalis) was over 70%. For the same compound, the inhibition at 50 µM (C. albicans ATCC 90028; [7]) was 25.2 ± 11% and the inhibition at 50 µM (E. coli ATCC 25922; [8]) was 9.1 ± 8.9%.
With `C=C(C)[C@@H]1CC[C@]2(COC(=O)c3ccccc3NC(C)=O)CC[C@]3(C)C(CCC4[C@@]5(C)CC[C@H](O)C(C)(C)C5CC[C@]43C)C12` (some centres unmarked) [Compound 5, 28-O-(N-acetylanthraniloyl)betulin] the inhibition at 50 µM (E. aerogenes ATCC 13048) was 25.2 ± 2%, the “Inhibitory effect (%) S. aureus ATCC 25923” value (S. aureus ATCC 25923; [4]) was 100.2±0.1% and the inhibition at 50 µM (S. aureus ATCC 25923; Staphylococcus aureus, read-out: Inhibitory effect (%) S. aureus ATCC 25923, 50 µM, 24 h, inhibition of growth, mean ± SD) was over 90%. The MIC90 (S. aureus ATCC 25923; Staphylococcus aureus, ATCC25923, read-out: MIC90 against S. aureus) was 6.25 µM (≈ 3.77 µg/mL), the inhibition at 50 µM (P. aeruginosa ATCC 27853; Pseudomonas aeruginosa, ATCC27853, 24 h, read-out: Inhibitory effect (%) P. aeruginosa ATCC 27853) was 12.3 ± 2.3% and the “BSA concentration at which the activity was completely lost” value (S. aureus) was 390 nM. For the same compound, the “BSA concentration at which the activity was reduced by 50%” value (S. aureus) was 24 nM, the cytotoxicity at 24 h, 50 µM (in vitro; 50 µM, 24 h exposure, ATP content, 5% FBS, read-out: Cytotoxicity (%) Huh-7 cells) was 30 ± 3% and the IC50 at 24 h (in vitro; 24 h exposure, ATP assay, 5% FBS, read-out: IC50 cytotoxicity Huh-7 cells) was 56 µM. The “Effect on Huh-7 cell monolayer in ATP assay” value (Huh-7 cells; 100 µM, 24 h) was “completely destroyed the cell monolayer”, the “Inhibitory effect (%) E. faecalis ATCC 29212” value (E. faecalis ATCC 29212) was 98.5±0.2% and the MIC90 (E. faecalis ATCC 29212; Enterococcus faecalis, ATCC29212, read-out: MIC90 against E. faecalis) was 6.25 µM (≈ 3.77 µg/mL). It also gave an inhibition at 50 µM (C. albicans ATCC 90028; Candida albicans, ATCC90028, 48 h, read-out: Inhibitory effect (%) C. albicans ATCC 90028) of 10 ± 5.2% and an inhibition at 50 µM (E. coli ATCC 25922; Escherichia coli, ATCC25922, 24 h, read-out: Inhibitory effect (%) E. coli ATCC 25922) of 0.5 ± 3.1%.
